Test results from ChEMBL document CHEMBL5385907, “Proline-Hinged α-Helical Peptides Sensitize Gram-Positive Antibiotics, Expanding Their Physicochemical Properties to Be Used as Gram-Negative Antibiotics” (J Med Chem, 2024).
Active and inactive are the calls of the source. The rule behind the calls is not given here. Residues, ends and D or L forms follow the SMILES beside them. *: point of attachment. X1 = CN(C)c1ccc2c(-c3ccc(C(=O)*)cc3C(=O)[O-])c3ccc(N(C)C)cc3[o+]c2c1; Octanoyl = CCCCCCCC(=O)*

How the values were obtained:
[1] = Drug localization in Escherichia coli ATCC 25922 assessed as increase in fluorescence at membrane at […] incubated for 30 mins by confocal laser scanning microscopy; format: ADME, cell membranes; conditions: 0.5 h, dose 0.63 µM
[2] = Drug localization in Acinetobacter baumannii ATCC 17978 assessed as increase in fluorescence at cytosol at 5 uM incubated for 30 mins by confocal laser scanning microscopy; format: ADME, subcellular; conditions: 0.5 h
Cell membrane = assay: Induction of outer membrane disruption in Acinetobacter baumannii ATCC 17978 at 5 uM incubated for 30 mins by confocal laser scanning microscopy; format: subcellular
[3] = Drug localization in Escherichia coli ATCC 25922 assessed as increase in fluorescence at membrane at […] by fluorescence-activated cell sorting analysis; format: ADME, cell membranes; conditions: dose 0.13 µM

With `CCCCCCCC(=O)N[C@@H](CCCCNC(=O)c1ccc(-c2c3ccc(N(C)C)cc3[o+]c3cc(N(C)C)ccc23)c(C(=O)[O-])c1)C(=O)N[C@@H](CCCCN)C(=O)N[C@@H](C)C(=O)N[C@@H](CC(C)C)C(=O)N[C@@H](CCCCN)C(=O)N[C@@H](CC(C)C)C(=O)N[C@@H](C)C(=O)N[C@@H](CCCCN)C(=O)N[C@@H](CCCCN)C(=O)N1CCC[C@H]1C(=O)N[C@@H](CC(C)C)C(=O)N[C@@H](CCCCN)C(=O)N[C@@H](CC(C)C)C(=O)N[C@@H](CC(C)C)C(=O)N[C@@H](CCCCN)C(N)=O` (Octanoyl-K(X1)KALKLAKKPLKLLK-NH2) the Drug uptake [1] was “Active”, the Drug uptake [2] was “Active” and the Activity (Cell membrane) was “Active”. For the same molecule, the Drug uptake [3] was “Active”.
